Measurements reported in patent US11180462B2, “Microbiocidal oxadiazole derivatives” (SYNGENTA PARTICIPATIONS AG, priority 2015, dated 2021).

Key:
Phakopsora Pachyrhizi = assay: Fungicidal activity against Phakopsora pachyrhizi / soybean / leaf disc preventative (Asian soybean rust); assay type: in vivo; settings: foliar, 200 ppm in the applied formulation, soybean leaf disks, compared to untreated control leaf disks, read-out: disease control
Procedure, shortened: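 Scored 12 to 14 days post-application as percent control relative to untreated check discs, rust spores were sprayed under the disc one day after compound treatment. Incubation: 20°C, 75% rh, first 24–36 h in darkness, then 12 h daily light; discs kept on water agar.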

[1] = test system: Puccinia recondita f. Sp. Tritici; assay: Fungicidal activity against Puccinia recondita f. sp. tritici / wheat / leaf disc preventative (brown rust); assay type: in vivo; settings: foliar, 200 ppm in the applied formulation, wheat leaf segments, preventative, compared to untreated control leaf disks, read-out: disease control
Procedure, shortened: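 200 ppm spray on wheat cv. Kanzler leaf segments; spore inoculation +1 day; 19° C., 75% rh, 12 h/12 h light cycle; single rating of % control vs untreated at 7 to 9 days.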

[2] = test system: Puccinia recondita f. Sp. Tritici; assay: Fungicidal activity against Puccinia recondita f. sp. tritici / wheat / leaf disc curative (brown rust); assay type: in vivo; settings: foliar, 24 h, 200 ppm in the applied formulation, wheat leaf segments, curative (applied 1 day after inoculation), compared to untreated control leaf disks, read-out: disease control
Procedure, shortened: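 % disease control vs untreated, scored 6–8 d post-application. Wheat cv. Kanzler segments, spore-inoculated, dark 19° C/75% RH; formulated cpd applied 1 d post-inoc; then 19° C, 75% RH, 12 h L/12 h D.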

[3] = test system: Glomerella lagenarium (Colletotrichum lagenarium); assay: Fungicidal activity against Glomerella lagenarium (Colletotrichum lagenarium) liquid culture / cucumber / preventative (anthracnose); assay type: cell-based; settings: Colletotrichum orbiculare; 20 ppm in the applied formulation; liquid culture (PDB), growth inhibition measured photometrically after 3 to 4 days; compared to untreated control; read-out: disease control
Procedure, shortened: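 Percent activity against the untreated check was derived from photometric growth measurements made 2 to 7 days after conidia in potato dextrose broth were combined with compound at 20 ppm. Cultures were kept dark at 24 °C and 96% humidity.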

In the case of `COC(=O)N(O)Cc1ccc(-c2noc(C(F)(F)F)n2)cc1` [Compound 2.24, methyl N-hydroxy-N-[[4-[5-(trifluoromethyl)-1,2,4-oxadiazol-3-yl]phenyl]methyl]-carbamate], the pest or weed control at 200 ppm (Phakopsora Pachyrhizi) is reported as at least 80%, the melting point is reported as 73 to 75.1 °C and the pest or weed control at 200 ppm [1] is reported as at least 80%. It also gave a pest or weed control at 200 ppm [2] of at least 80% and an inhibition of growth at 20 ppm [3] of at least 80%.

`CON(C)C(=O)N(Cc1ccc(-c2noc(C(F)(F)F)n2)cc1)OC` [Compound 3.3, 1,3-dimethoxy-1-methyl-3-[[4-[5-(trifluoromethyl)-1,2,4-oxadiazol-3-yl]phenyl]methyl]urea] gave a pest or weed control at 200 ppm (Phakopsora Pachyrhizi) of at least 80%, a melting point of 74 to 77 °C and a pest or weed control at 200 ppm [1] of at least 80%. It also gave a pest or weed control at 200 ppm [2] of at least 80% and an inhibition of growth at 20 ppm [3] of at least 80%.

For `CON(Cc1ccc(-c2noc(C(F)(F)F)n2)cc1)C(=O)NCC1CC1` [Compound 3.6, 3-(cyclopropylmethyl)-1-methoxy-1-[[4-[5-(trifluoromethyl)-1,2,4-oxadiazol-3-yl]phenyl]methyl]urea], the pest or weed control at 200 ppm (Phakopsora Pachyrhizi) was at least 80%, the melting point was 77 to 81.4 °C and the pest or weed control at 200 ppm [1] was at least 80%. For the same molecule, the pest or weed control at 200 ppm [2] was at least 80% and the inhibition of growth at 20 ppm [3] was at least 80%.

With `CON(Cc1ccc(-c2noc(C(F)(F)F)n2)cc1)C(=O)NC1CC1` [Compound 3.14, 3-cyclopropyl-1-methoxy-1-[[4-[5-(trifluoromethyl)-1,2,4-oxadiazol-3-yl]phenyl]methyl]urea] the pest or weed control at 200 ppm (Phakopsora Pachyrhizi) was at least 80%, the melting point was 84 to 87 °C and the pest or weed control at 200 ppm [1] was at least 80%. It also gave a pest or weed control at 200 ppm [2] of at least 80% and an inhibition of growth at 20 ppm [3] of at least 80%.

For `CCONC(=O)N(Cc1ccc(-c2noc(C(F)(F)F)n2)cc1)OC` [Compound 3.18, 3-ethoxy-1-methoxy-1-[[4-[5-(trifluoromethyl)-1,2,4-oxadiazol-3-yl]phenyl]methyl]urea], the pest or weed control at 200 ppm (Phakopsora Pachyrhizi) was at least 80%, the melting point was 107 to 110 °C and the pest or weed control at 200 ppm [1] was at least 80%. It also gave a pest or weed control at 200 ppm [2] of at least 80% and an inhibition of growth at 20 ppm [3] of at least 80%.

Molecule `CON(C)C(=O)N(O)Cc1ccc(-c2noc(C(F)(F)F)n2)cc1` [Compound 3.29, 1-hydroxy-3-methoxy-3-methyl-1-[[4-[5-(trifluoromethyl)-1,2,4-oxadiazol-3-yl]phenyl]methyl]urea] has a pest or weed control at 200 ppm (Phakopsora Pachyrhizi) of at least 80%, a melting point of 96.3 to 100.5 °C and a pest or weed control at 200 ppm [1] of at least 80%. For the same molecule, the pest or weed control at 200 ppm [2] was at least 80% and the inhibition of growth at 20 ppm [3] was at least 80%.

With `CON(C)C(=O)N(C)C(C#N)c1ccc(-c2noc(C(F)(F)F)n2)cc1` (stereo not shown) [Compound 3.31, 1-[cyano-[4-[5-(trifluoromethyl)-1,2,4-oxadiazol-3-yl]phenyl]methyl]-3-methoxy-1,3-dimethyl-urea] the pest or weed control at 200 ppm (Phakopsora Pachyrhizi) was at least 80%, the melting point was 106 to 107 °C and the pest or weed control at 200 ppm [1] was at least 80%. It also gave a pest or weed control at 200 ppm [2] of at least 80% and an inhibition of growth at 20 ppm [3] of at least 80%.

For `CON(Cc1ccc(-c2noc(C(F)(F)F)n2)cc1)C(N)=O` [Compound 3.32, 1-methoxy-1-[[4-[5-(trifluoromethyl)-1,2,4-oxadiazol-3-yl]phenyl]methyl]urea], the pest or weed control at 200 ppm (Phakopsora Pachyrhizi) was at least 80%, the melting point was 112.2 to 114.7 °C and the pest or weed control at 200 ppm [1] was at least 80%. The pest or weed control at 200 ppm [2] was at least 80% and the inhibition of growth at 20 ppm [3] was at least 80%.

In the case of `CNC(=O)N(C)Cc1ccc(-c2noc(C(F)(F)F)n2)cc1` [Compound 3.37, 1,3-dimethyl-1-[[4-[5-(trifluoromethyl)-1,2,4-oxadiazol-3-yl]phenyl]methyl]urea], the pest or weed control at 200 ppm (Phakopsora Pachyrhizi) is reported as at least 80%, the melting point is reported as 95 to 98 °C and the pest or weed control at 200 ppm [1] is reported as at least 80%. For the same molecule, the pest or weed control at 200 ppm [2] was at least 80% and the inhibition of growth at 20 ppm [3] was at least 80%.

Work on `CON(Cc1ccc(-c2noc(C(F)(F)F)n2)cc1)C(=O)NCC(F)(F)F` [Compound 3.38, 1-methoxy-3-(2,2,2-trifluoroethyl)-1-[[4-[5-(trifluoromethyl)-1,2,4-oxadiazol-3-yl]phenyl]methyl]urea] yielded a pest or weed control at 200 ppm (Phakopsora Pachyrhizi) of at least 80%, a melting point of 95 to 98 °C and a pest or weed control at 200 ppm [1] of at least 80%. It also gave a pest or weed control at 200 ppm [2] of at least 80% and an inhibition of growth at 20 ppm [3] of at least 80%.

`CON(Cc1ccc(-c2noc(C(F)(F)F)n2)cc1)C(=O)NCC#N` [Compound 3.39, 3-(cyanomethyl)-1-methoxy-1-[[4-[5-(trifluoromethyl)-1,2,4-oxadiazol-3-yl]phenyl]methyl]urea] gave a pest or weed control at 200 ppm (Phakopsora Pachyrhizi) of at least 80%, a melting point of 155 to 158 °C and a pest or weed control at 200 ppm [1] of at least 80%. The pest or weed control at 200 ppm [2] was at least 80% and the inhibition of growth at 20 ppm [3] was at least 80%.

`CON(Cc1ccc(-c2noc(C(F)(F)F)n2)cc1)C(=O)N[C@@H](C)C1CC1` [Compound 3.41, 3-[(1S)-1-cyclopropylethyl]-1-methoxy-1-[[4-[5-(trifluoromethyl)-1,2,4-oxadiazol-3-yl]phenyl]methyl]urea] showed a pest or weed control at 200 ppm (Phakopsora Pachyrhizi) of at least 80%, a melting point of 99 to 102 °C and a pest or weed control at 200 ppm [1] of at least 80%. For the same molecule, the pest or weed control at 200 ppm [2] was at least 80% and the inhibition of growth at 20 ppm [3] was at least 80%.

With `CON(Cc1ccc(-c2noc(C(F)(F)F)n2)cc1)C(=O)NC(C)C` [Compound 3.42, 3-isopropyl-1-methoxy-1-[[4-[5-(trifluoromethyl)-1,2,4-oxadiazol-3-yl]phenyl]methyl]urea] the pest or weed control at 200 ppm (Phakopsora Pachyrhizi) was at least 80%, the melting point was 106 to 107.3 °C and the pest or weed control at 200 ppm [1] was at least 80%. For the same molecule, the pest or weed control at 200 ppm [2] was at least 80% and the inhibition of growth at 20 ppm [3] was at least 80%.

In the case of `C#CCNC(=O)N(Cc1ccc(-c2noc(C(F)(F)F)n2)cc1)OC` [Compound 3.43, 1-methoxy-3-prop-2-ynyl-1-[[4-[5-(trifluoromethyl)-1,2,4-oxadiazol-3-yl]phenyl]methyl]urea], the pest or weed control at 200 ppm (Phakopsora Pachyrhizi) is reported as at least 80%, the melting point is reported as 88.9 to 90.6 °C and the pest or weed control at 200 ppm [1] is reported as at least 80%. The pest or weed control at 200 ppm [2] was at least 80% and the inhibition of growth at 20 ppm [3] was at least 80%.

Work on `CON(Cc1ccc(-c2noc(C(F)(F)F)n2)cc1)C(=O)NC1(C)CC1` [Compound 3.46, 1-methoxy-3-(1-methylcyclopropyl)-1-[[4-[5-(trifluoromethyl)-1,2,4-oxadiazol-3-yl]phenyl]methyl]urea] yielded a pest or weed control at 200 ppm (Phakopsora Pachyrhizi) of at least 80%, a melting point of 93 to 97 °C and a pest or weed control at 200 ppm [1] of at least 80%. For the same molecule, the pest or weed control at 200 ppm [2] was at least 80% and the inhibition of growth at 20 ppm [3] was at least 80%.

`CON(Cc1ccc(-c2noc(C(F)(F)F)n2)cc1)C(=O)NC1(C#N)CC1` [Compound 3.47, 3-(1-cyanocyclopropyl)-1-methoxy-1-[[4-[5-(trifluoromethyl)-1,2,4-oxadiazol-3-yl]phenyl]methyl]urea] showed a pest or weed control at 200 ppm (Phakopsora Pachyrhizi) of at least 80%, a melting point of 106 to 109 °C and a pest or weed control at 200 ppm [1] of at least 80%. For the same molecule, the pest or weed control at 200 ppm [2] was at least 80% and the inhibition of growth at 20 ppm [3] was at least 80%.

`CCOC(=O)C1(NC(=O)N(Cc2ccc(-c3noc(C(F)(F)F)n3)cc2)OC)CC1` [Compound 3.48, ethyl 1-[[methoxy-[[4-[5-(trifluoromethyl)-1,2,4-oxadiazol-3-yl]phenyl]methyl]-carbamoyl]amino]-cyclopropanecarboxylate] gave a pest or weed control at 200 ppm (Phakopsora Pachyrhizi) of at least 80%, a melting point of 93 to 97 °C and a pest or weed control at 200 ppm [1] of at least 80%. It also gave a pest or weed control at 200 ppm [2] of at least 80% and an inhibition of growth at 20 ppm [3] of at least 80%.

`CON(Cc1ccc(-c2noc(C(F)(F)F)n2)cc1)C(=O)NCC(=O)N(C)C` [Compound 3.51, 2-[[methoxy-[[4-[5-(trifluoromethyl)-1,2,4-oxadiazol-3-yl]phenyl]methyl]-carbamoyl]amino]-N,N-dimethyl-acetamide] showed a pest or weed control at 200 ppm (Phakopsora Pachyrhizi) of at least 80%, a melting point of 98 to 101 °C and a pest or weed control at 200 ppm [1] of at least 80%. The pest or weed control at 200 ppm [2] was at least 80% and the inhibition of growth at 20 ppm [3] was at least 80%.

`CON(Cc1ccc(-c2noc(C(F)(F)F)n2)cc1)C(=O)NC1COC1` [Compound 3.55, 1-methoxy-3-(oxetan-3-yl)-1-[[4-[5-(trifluoromethyl)-1,2,4-oxadiazol-3-yl]phenyl]methyl]urea] gave a pest or weed control at 200 ppm (Phakopsora Pachyrhizi) of at least 80%, a melting point of 97 to 100 °C and a pest or weed control at 200 ppm [1] of at least 80%. It also gave a pest or weed control at 200 ppm [2] of at least 80% and an inhibition of growth at 20 ppm [3] of at least 80%.

Molecule `CN(Cc1ccc(-c2noc(C(F)(F)F)n2)cc1)C(=O)NC1CC1` [Compound 3.56, 3-cyclopropyl-1-methyl-1-[[4-[5-(trifluoromethyl)-1,2,4-oxadiazol-3-yl]phenyl]methyl]urea] has a pest or weed control at 200 ppm (Phakopsora Pachyrhizi) of at least 80%, a melting point of 113 to 121 °C and a pest or weed control at 200 ppm [1] of at least 80%. The pest or weed control at 200 ppm [2] was at least 80% and the inhibition of growth at 20 ppm [3] was at least 80%.
